Drawing on patent US20230272029A1, “CO-AGONISTS AT GLP-1 AND GIP RECEPTORS SUITABLE FOR ORAL DELIVERY” (Novo Nordisk A/S, priority 2020, published 2023), this text covers Cmax/Dose for five compounds.

SMILES strings stand for the structures. Marks after values point to notes of the source that are not given here. Starred links: 1 amine or outer side, 2 acyl side, 3 side chain; linkers in the order of their positions; H or OH if unused. Non-standard residues stand in square brackets, D forms with d. Residues, ends and D or L forms follow the SMILES beside them. Groups on a side chain read outwards from the residue. *: point of attachment. C18 diacid = O=C(O)CCCCCCCCCCCCCCCCC(=O)*; γGlu = O=C(O)[C@H](CCC(=O)[*:2])N[*:1]; εLys = N[C@@H](CCCCN[*:1])C(=O)[*:2]; Aib = CC(C)(N)C(=O)O

The nature of this series: Pharmacokinetic study in dogs after oral dosing of tablets with SNAC. It is filed as in vivo, Beagle dogs. On the procedure: The purpose of this example is to determine the half-life and plasma exposure in vivo of the compounds of the present invention after p.o. administration to beagle dogs, i.e. the terminal half-life and concentration of test substance that reaches circulation with time. This is done in a pharmacokinetic (PK) study, where these parameters of the compound in question are determined. By terminal half-life is generally meant the period of time it takes to halve a certain plasma concentration, measured after the initial distribution phase.
The amount of SNAC in the tablet composition was 100-300 mg, the amount of magnesium stearate in the tablet composition was 7.7 mg, and the target amount of each test substance in the tablet composition was 3-4 mg.
Male beagle dogs, 1-7 years of age and weighing 9-17 kg during the study period, were included in the study. The dogs were dosed in a fasting state. The dogs were group housed in pens (12 hours light: 12 hours dark), and fed individually and restrictedly once daily with Royal Canin Medium Adult dog food (Royal Canin Products, China Branch, or Brogaarden A/S, Denmark). The dogs were used for repeated PK studies with a suitable wash-out period between successive dosing. An appropriate acclimatization period was given prior to initiation of the first PK study. All handling, dosing, and blood sampling of the animals were performed by trained and skilled staff. Before the studies, the dogs were fasted overnight and from 0 to 4 hours after dosing. The dogs were restricted to water 1 hour before dosing until 4 hours after dosing, but otherwise had ad libitum access to water during the whole period.
The compositions were administered by a single oral dosing to the dogs in groups of 6-8 dogs. […] The mouth was then closed, and 10 mL of tap water was given by syringe or gavage to facilitate swallowing of the tablet.
For each blood sample time point, approximately 0.8 mL of whole blood was collected in a 1.5 mL EDTA-coated tube, which was gently turned to mix the sample with EDTA. Blood samples were collected in EDTA buffer (8 mM) and then centrifuged at 4° C. and 2000g for 10 minutes. Plasma was pipetted into Micronic tubes on dry ice, and kept at −20° C. or lower until analysis. Blood samples were taken as appropriate, for example from a venflon in the cephalic vein in the front leg for the first 2 hours and then with syringe from the jugular vein for the rest of the time points. The first few drops were allowed to drain from the venflon to avoid heparin saline from the venflon in the sample.
All blood samples were collected into test tubes containing EDTA for stabilisation and kept on ice until centrifugation. Plasma was separated from whole blood by centrifugation and the plasma was stored at −20° C. or lower until analysis.
The plasma was analysed for test substance using LC-MS (Liquid Chromatography-Mass Spectrometry) as known to the person skilled in the art. […] RP-HPLC separation was achieved using a linear gradient of 1:1 acetonitrile/methanol in 1% aqueous formic acid using either: a Phenomenex Onyx Monolithic C18 column (50×2.0 mm) and a flow rate of 0.8 mL/min at 30° C.; or an Agilent Poroshell 120 SB-C18 column (50×2.1 mm, 2.7 μm) at a flow rate of 0.4 mL/min at 60° C. The mass spectrometer was operated in either positive ionization SIM mode or positive ionization PRM mode.
For each individual animal, a plasma concentration-time profile was analysed by a non-compartmental model in Pharsight Phoenix WinNonLin ver. 6.4 software or other relevant software for PK analysis, and the resulting terminal half-life (t1/2), maximum plasma concentration per dose (Cmax/D), time for maximum plasma concentration (tmax), and area under the curve to infinity per dose (AUC/D) were determined. Summary statistics of pharmacokinetic results were presented as median (for tmax), harmonic mean ([…]), or arithmetic mean (Cmax, AUC).

In the case of `CC[C@H](C)[C@H](NC(=O)[C@H](Cc1ccccc1)NC(=O)[C@H](CCC(=O)O)NC(=O)[C@H](Cc1c[nH]cn1)NC(=O)[C@H](C)NC(=O)[C@H](C)NC(=O)[C@H](CCC(N)=O)NC(=O)[C@H](CCCCNC(=O)[C@@H](N)CCCCNC(=O)[C@@H](N)CCCCNC(=O)CC[C@H](NC(=O)CCCCCCCCCCCCCCCCC(=O)O)C(=O)O)NC(=O)[C@H](CCC(=O)O)NC(=O)[C@H](CC(C)C)NC(=O)[C@H](CC(C)C)NC(=O)[C@@H](NC(=O)[C@H](CO)NC(=O)[C@H](Cc1ccc(O)cc1)NC(=O)[C@H](CC(=O)O)NC(=O)[C@H](CO)NC(=O)[C@@H](NC(=O)[C@H](Cc1ccccc1)NC(=O)[C@@H](NC(=O)CNC(=O)[C@H](CCC(=O)O)NC(=O)C(C)(C)NC(=O)[C@@H](N)Cc1ccc(O)cc1)[C@@H](C)O)[C@@H](C)O)[C@@H](C)CC)C(=O)N[C@@H](CC(N)=O)C(=O)N[C@@H](Cc1c[nH]c2ccccc12)C(=O)N[C@@H](CC(C)C)C(=O)N[C@@H](CC(C)C)C(=O)N[C@@H](C)C(=O)NCC(=O)NCC(=O)N1CCC[C@H]1C(=O)N[C@@H](CO)C(=O)N[C@@H](CO)C(=O)NCC(=O)N[C@@H](C)C(=O)N1CCC[C@H]1C(=O)N1CCC[C@H]1C(=O)N1CCC[C@H]1C(=O)N[C@@H](CO)C(=O)O` [Compound No. 26] (H-Y[Aib]EGTFTSDYSILLEK([εLys-εLys-γGlu-C18 diacid])QAAHEFINWLLAGGPSSGAPPPS-OH), the Cmax/Dose (dog, in vivo, po) is recorded as 0.49* kg/L.

Regarding `CC[C@H](C)[C@H](NC(=O)[C@H](Cc1ccccc1)NC(=O)[C@H](CCC(=O)O)NC(=O)[C@H](CCCNC(=N)N)NC(=O)[C@H](C)NC(=O)[C@H](C)NC(=O)[C@H](CCC(N)=O)NC(=O)[C@H](CCCCNC(=O)[C@@H](N)CCCCNC(=O)[C@@H](N)CCCCNC(=O)CC[C@H](NC(=O)CCCCCCCCCCCCCCCCC(=O)O)C(=O)O)NC(=O)[C@H](CCC(=O)O)NC(=O)[C@H](CC(C)C)NC(=O)[C@H](CC(C)C)NC(=O)[C@@H](NC(=O)[C@H](CO)NC(=O)[C@H](Cc1ccc(O)cc1)NC(=O)[C@H](CC(=O)O)NC(=O)[C@H](CO)NC(=O)[C@@H](NC(=O)[C@H](Cc1ccccc1)NC(=O)[C@@H](NC(=O)CNC(=O)[C@H](CCC(=O)O)NC(=O)C(C)(C)NC(=O)[C@@H](N)Cc1ccc(O)cc1)[C@@H](C)O)[C@@H](C)O)[C@@H](C)CC)C(=O)N[C@@H](CCC(=O)O)C(=O)N[C@@H](Cc1c[nH]c2ccccc12)C(=O)N[C@@H](CC(C)C)C(=O)N[C@@H](CC(C)C)C(=O)N[C@@H](CCCNC(=N)N)C(=O)NCC(=O)NCC(=O)N1CCC[C@H]1C(=O)N[C@@H](CCC(=O)O)C(=O)N[C@@H](CO)C(=O)NCC(=O)N[C@@H](C)C(=O)N1CCC[C@H]1C(=O)N1CCC[C@H]1C(=O)N1CCC[C@H]1C(=O)N[C@@H](CO)C(=O)O` [Compound No. 28] (H-Y[Aib]EGTFTSDYSILLEK([εLys-εLys-γGlu-C18 diacid])QAAREFIEWLLRGGPESGAPPPS-OH), the Cmax/Dose (oral tablet, 300 mg SNAC, 3 mg test substance, Beagle dogs, arithmetic mean) is given as 0.36** kg/L. `CC[C@H](C)[C@H](NC(=O)[C@H](Cc1ccccc1)NC(=O)[C@H](CCC(=O)O)NC(=O)[C@H](CCCNC(=N)N)NC(=O)[C@H](C)NC(=O)[C@H](C)NC(=O)[C@H](CCC(N)=O)NC(=O)[C@H](CCCCNC(=O)[C@@H](N)CCCCNC(=O)[C@@H](N)CCCCNC(=O)CC[C@H](NC(=O)CCCCCCCCCCCCCCCCC(=O)O)C(=O)O)NC(=O)[C@H](CCC(=O)O)NC(=O)[C@H](CC(C)C)NC(=O)[C@H](Cc1ccc(O)cc1)NC(=O)[C@@H](NC(=O)[C@H](CO)NC(=O)[C@H](Cc1ccc(O)cc1)NC(=O)[C@H](CC(=O)O)NC(=O)[C@H](CO)NC(=O)[C@@H](NC(=O)[C@H](Cc1ccccc1)NC(=O)[C@@H](NC(=O)CNC(=O)[C@H](CCC(=O)O)NC(=O)C(C)(C)NC(=O)[C@@H](N)Cc1ccc(O)cc1)[C@@H](C)O)[C@@H](C)O)[C@@H](C)CC)C(=O)N[C@@H](CCC(=O)O)C(=O)N[C@@H](Cc1c[nH]c2ccccc12)C(=O)N[C@@H](CC(C)C)C(=O)N[C@@H](CC(C)C)C(=O)N[C@@H](C)C(=O)NCC(=O)NCC(=O)N1CCC[C@H]1C(=O)N[C@@H](CO)C(=O)N[C@@H](CO)C(=O)NCC(=O)N[C@@H](C)C(=O)N1CCC[C@H]1C(=O)N1CCC[C@H]1C(=O)N1CCC[C@H]1C(=O)N[C@@H](CO)C(=O)O` [Compound No. 9] (H-Y[Aib]EGTFTSDYSIYLEK([εLys-εLys-γGlu-C18 diacid])QAAREFIEWLLAGGPSSGAPPPS-OH) had a Cmax/Dose (dog, in vivo, po) of 0.24 kg/L.

With `CC[C@H](C)[C@H](NC(=O)[C@H](Cc1ccccc1)NC(=O)[C@H](CCC(=O)O)NC(=O)[C@H](CCCNC(=N)N)NC(=O)[C@H](C)NC(=O)[C@H](C)NC(=O)[C@H](CCC(N)=O)NC(=O)[C@H](CCCCNC(=O)[C@@H](N)CCCCNC(=O)[C@@H](N)CCCCNC(=O)CC[C@H](NC(=O)CCCCCCCCCCCCCCCCC(=O)O)C(=O)O)NC(=O)[C@H](CCC(=O)O)NC(=O)[C@H](CC(C)C)NC(=O)[C@H](CC(C)C)NC(=O)[C@@H](NC(=O)[C@H](CO)NC(=O)[C@H](Cc1ccc(O)cc1)NC(=O)[C@H](CC(=O)O)NC(=O)[C@H](CO)NC(=O)[C@@H](NC(=O)[C@H](Cc1ccccc1)NC(=O)[C@@H](NC(=O)CNC(=O)[C@H](CCC(=O)O)NC(=O)C(C)(C)NC(=O)[C@@H](N)Cc1ccc(O)cc1)[C@@H](C)O)[C@@H](C)O)[C@@H](C)CC)C(=O)N[C@@H](CC(N)=O)C(=O)N[C@@H](Cc1c[nH]c2ccccc12)C(=O)N[C@@H](CC(C)C)C(=O)N[C@@H](CC(C)C)C(=O)N[C@@H](C)C(=O)NCC(=O)NCC(=O)N1CCC[C@H]1C(=O)N[C@@H](CO)C(=O)N[C@@H](CO)C(=O)O` [Compound No. 20] (H-Y[Aib]EGTFTSDYSILLEK([εLys-εLys-γGlu-C18 diacid])QAAREFINWLLAGGPSS-OH), the Cmax/Dose (dog, in vivo, po) is reported as 0.21 kg/L. Still for that read-out and setting: the value for `CC[C@H](C)[C@H](NC(=O)[C@H](Cc1ccccc1)NC(=O)[C@H](CCC(=O)O)NC(=O)[C@H](CCC(N)=O)NC(=O)[C@H](C)NC(=O)[C@H](C)NC(=O)[C@H](CCC(N)=O)NC(=O)[C@H](CCCCNC(=O)[C@@H](N)CCCCNC(=O)[C@@H](N)CCCCNC(=O)CC[C@H](NC(=O)CCCCCCCCCCCCCCCCC(=O)O)C(=O)O)NC(=O)[C@H](CCC(=O)O)NC(=O)[C@H](CC(C)C)NC(=O)[C@H](CC(C)C)NC(=O)[C@@H](NC(=O)[C@H](CO)NC(=O)[C@H](Cc1ccc(O)cc1)NC(=O)[C@H](CC(=O)O)NC(=O)[C@H](CO)NC(=O)[C@@H](NC(=O)[C@H](Cc1ccccc1)NC(=O)[C@@H](NC(=O)CNC(=O)[C@H](CCC(=O)O)NC(=O)C(C)(C)NC(=O)[C@@H](N)Cc1ccc(O)cc1)[C@@H](C)O)[C@@H](C)O)[C@@H](C)CC)C(=O)N[C@@H](CC(N)=O)C(=O)N[C@@H](Cc1c[nH]c2ccccc12)C(=O)N[C@@H](CC(C)C)C(=O)N[C@@H](CC(C)C)C(=O)N[C@@H](C)C(=O)NCC(=O)NCC(=O)N1CCC[C@H]1C(=O)N[C@@H](CO)C(=O)N[C@@H](CO)C(=O)NCC(=O)N[C@@H](C)C(=O)N1CCC[C@H]1C(=O)N1CCC[C@H]1C(=O)N1CCC[C@H]1C(=O)N[C@@H](CO)C(=O)O` [Compound No. 24] (H-Y[Aib]EGTFTSDYSILLEK([εLys-εLys-γGlu-C18 diacid])QAAQEFINWLLAGGPSSGAPPPS-OH) was 0.29 kg/L.
